Article PMC11085308, “Design, Synthesis and Biological Activity of Novel Methoxy- and Hydroxy-Substituted N-Benzimidazole-Derived Carboxamides” (Molecules, 2024)
≈ marks a conversion by molar mass, not a printed value. Read-outs that look alike come from different tables or passages of the source.

Experiments:
[1] = system: MCF-7 (human breast cancer); experiment: Antiproliferative activity in vitro, MTT assay, 72 h; type: cell-based; settings: MCF7, 72 h incubation
Procedure: (§1) The experiments were carried out on four human cell lines which are derived from three cancer types: H460 (lung carcinoma), HCT 116 (colorectal carcinoma), MCF-7 (human breast cancer) and the non-cancerous cell line HEK 293 (human embryonic kidney).
(§2) The results are compared with the known antiproliferative agents doxorubicin and etoposide. […] Therefore, it is not clear whether the observed antiproliferative activity is due to the biological activity of the compounds or to precipitation.
(§3) The experiments were performed on four human cell lines, including HCT 116 (colon carcinoma), H 460 (lung carcinoma), MCF-7 (breast carcinoma) and HEK 293 (human embryonic kidney cells), in line with previously published experimental procedures. Briefly, the cells were grown in DMEM medium with the addition of 10% fetal bovine serum (FBS), 2 mM of L-glutamine, 100 U/mL of penicillin and 100 µg/mL of streptomycin and cultured as monolayers at 37 °C in a humidified atmosphere with 5% CO2. Cells were seeded at 2 × 10^3 cells/well in standard 96-well microtiter plates and left to attach for 24 h. The next day, a test compound was added in five serial 10-fold dilutions. The rate of cell growth was evaluated after 72 h of incubation with MTT assays. […] Each test was performed in quadruplicate in at least two individual experiments.

[2] = system: H460 (lung carcinoma); experiment: as above; type: cell-based; settings: Homo sapiens, NCI-H460, 72 h incubation
Procedure: as §1, §2, §3

[3] = system: HCT 116 (colorectal carcinoma); experiment: as above; type: cell-based; settings: Homo sapiens, 72 h incubation, '-' with footnote a = did not show biological activity due to precipitation
Procedure: as §1, §2, §3

[4] = system: E. coli efflux del.; experiment: microbe, parasite or virus in culture; type: cell-based, Escherichia coli; settings: broth microdilution, 16–24 h at 37 °C; unit inferred
Procedure: (§4) The in vitro antibacterial activity of the synthesized benzamides 7–12 and 31–37 was evaluated against a panel of eight different bacterial strains. The Gram-positive bacterial strains comprised S. aureus, S. pneumoniae and E. faecalis, and the panel of Gram-negative bacteria consisted of E. coli, K. pneumoniae, A. baumannii and P. aeruginosa.
(§5) The selected bacterial strains were Gram-negative Escherichia coli (ATCC 25922) and Gram-positive Staphylococcus aureus (ATCC 29213) and S. Pneumoniae (ATCC 49619). The Saccharomyces cerevisiae ATCC 7752 strain was tested as a eukaryotic model organism. Synthesized compounds were prepared as 10 mM DMSO solutions and tested in a final concentration range of 100–0.2 µM [39].
(§6) Broth microdilution testing was performed according to CLSI (Clinical Laboratory Standards Institute) guidelines. The MIC (minimal inhibitory concentration) value was defined as the last tested concentration of a compound at which there is no visible growth of bacteria. Inoculums for each microorganism were prepared using the direct colony suspension method, where broth solutions that achieved turbidity equivalent to 0.5 McFarland standards were additionally diluted 100× with cation-adjusted MH media (Becton Dickinson). All test plates were incubated for 16–24 h at 37 °C.

[5] = Solubility in water, seen as precipitation during incubation; type: physicochemical; settings: precipitation observed during the incubation period
Excerpt: Therefore, it is not clear whether the observed antiproliferative activity is due to the biological activity of the compounds or to precipitation.

[6] = system: S. aureus ATCC 29213; experiment: Antibacterial activity in vitro, broth microdilution MIC; type: cell-based, Staphylococcus aureus; settings: broth microdilution, 16–24 h at 37 °C; unit inferred
Procedure: as §4, §5, §6

[7] = system: E. faecalis ATCC 29212; experiment: as above; type: cell-based; settings: for MIC E. faecalis ATCC 29212: broth microdilution, 16–24 h at 37 °C, unit inferred
Procedure: as §4, §5, §6

[8] = system: P. aeruginosa ATCC 27853; experiment: as above; type: cell-based; settings: 16–24 h at 37 °C, unit inferred
Procedure: as §4, §5, §6

[9] = system: A. baumannii ATCC 17978; experiment: as above; type: cell-based; settings: 16–24 h at 37 °C, unit inferred
Procedure: as §4, §5, §6

[10] = system: E. coli ATCC 25922; experiment: as above; type: cell-based, Escherichia coli; settings: 16–24 h at 37 °C, unit inferred
Procedure: as §4, §5, §6

[11] = Ferric reducing/antioxidant power (FRAP assay); set-up: FRAP: unit not given here; settings: Fe2+ equivalents, triplicate
Procedure: The synthesized benzazole acrylonitrile derivatives were screened for their antioxidative potency by using in vitro assays, namely DPPH and ABTS as free radical scavenging assays and FRAP as a ferric reducing/antioxidant power assay.
The antioxidant activity of a substance is directly related to its reducing power.
The FRAP method was carried out according to previously described procedures with some modifications to make it compatible with an assay on a 96-well microplate. All results were expressed as Fe^2+ equivalents (Fe^2+ µmol). Ferrous sulphate (FeSO4 × 7H2O) was used to develop a standard curve of 20–2000 µmol/l for the FRAP test.

[12] = system: HCT 116 cells; experiment: Antioxidative activity assay in cells (ROS level, DCFH-DA fluorescence); type: cell-based, human; settings: HCT 116, TBHP 100 µM plus 10 µM compound, 1 h, compared to NAC
Excerpt: We further selected compounds 9, 10, 32 and 36, showing quite pronounced antioxidant capacity in the DPPH and FRAP assays, in order to test their pro- and antioxidant activity in tumor cells. In order to test the antioxidant activity of the selected compounds in tumor cells (Figure 2), we treated HCT 116 cells with tert-butyl hydroperoxide (TBHP), a substance commonly used for inducing oxidative stress in cells and tissues, alone or in combination with a known antioxidative agent, N-acetyl-L-cysteine (NAC), or the tested compounds. We measured the formation of oxidative stress byproducts using 2′,7′-dichlorodihydrofluorescein diacetate (DCFH-DA).
For the antioxidative activity assay, 2.5 × 10^4 cells were seeded into 96-well microtiter plates and left to attach for 24 h. The next day, cells were washed with PBS and incubated in FBS-free DMEM medium with 25 µM of DCFH-DA fluorescence dye. After 45 min of incubation, the medium was discarded, and the cells were washed with PBS.
After the washing step, the cells were incubated with 100 µM of tert-butyl hydroperoxide (TBHP) alone or in combination with antioxidative agents (50 mM of N-Acetyl-L-cysteine-NAC or 10 µM of the tested compounds) in PBS for 1 h at 37 °C. DCFH-DA fluorescence was recorded on a microplate fluorimeter reader (Tecan) with an excitation beam of 485 nm, while the emitted fluorescence was collected at 535 nm. All tests were presented as the means of two independent measurements carried out in triplicate. One-way ANOVA with Tukey’s post hoc test was used for statistical analysis: *—p < 0.05; **—p < 0.01; ***—p < 0.001.
Figure 2 Antioxidative activity of selected systems. HCT 116 cells were treated with a combination of H2O2 (4 mM) and N-acetyl-L-cysteine (NAC, 10 mM) or the tested compounds (10 mM). Treatment with H2O2 (4 mM) alone was used as a control for ROS induction. The level of reactive oxygen species (ROS) was measured with the fluorescent dye DCFH-DA using a fluorimeter. The data presented here are the results of three independent measurements carried out in triplicate. A one-way ANOVA with Tukey’s post hoc test was used for statistical analysis, *** p < 0.001; ns—not significant.

[13] = system: H460, HCT 116, MCF-7, HEK 293; experiment: Antiproliferative activity in vitro, MTT assay, range over the tested cell lines; type: cell-based, human; settings: read-out: IC50 range against the tested cell lines
Procedure: as §1, §2, §3

[14] = system: HEK 293 (human embryonic kidney); experiment: Antiproliferative activity in vitro, MTT assay, 72 h, non-cancerous cell line; type: cell-based; settings: HEK293, 72 h incubation, '-' with footnote a = did not show biological activity due to precipitation
Procedure: as §1, §2, §3

Compound | IC50 [1] | IC50 [2] | IC50 [3] | MIC E. coli efflux del. [4] | Solubility in water [5] | MIC S. aureus ATCC 29213 [6] | Selectivity of antibacterial activity, in words ([7]; against the Gram-positive strain E. faecalis) | MIC E. faecalis ATCC 29212 [7] | MIC P. aeruginosa ATCC 27853 [8] | MIC A. baumannii ATCC 17978 [9] | MIC E. coli ATCC 25922 [10] | FRAP [11] | Level of ROS in cells under induced oxidative stress [12] | IC50 ([13]; Homo sapiens) | IC50 [13] | IC50 [14]
COc1ccc(C(=O)Nc2nc3ccccc3[nH]2)c(O)c1 [Compound 7, N-(1H-benzo[d]imidazol-2-yl)-2-hydroxy-4-methoxybenzamide] | 36.3 ± 1.8 µM | > 100 µM | 26.4 ± 4.8 µM | > 64 µM | low solubility in water | > 64 µM | selective antibacterial activity | 16 µM (≈ 4.53 µg/mL) | > 64 µM | > 64 µM | > 64 µM | 387.28 ± 7.56 | – | – | – | –
COc1ccc(C(=O)Nc2nc3cc(C#N)ccc3n2CC(C)C)c(O)c1 [Compound 10, N-(5-cyano-1-isobutyl-1H-benzo[d]imidazol-2-yl)-2-hydroxy-4-methoxybenzamide] | 2.2 ± 0.9 µM | 4.4 ± 0.4 µM | 3.9 ± 0.4 µM | > 64 µM | – | > 64 µM | – | > 64 µM | > 64 µM | > 64 µM | > 64 µM | 123.61 ± 2.52 | did not effectively scavenge ROS | 2.2 to 4.4 µM | 1.2 to 5.3 µM | 4.4 ± 0.3 µM
